# According to US11976083B2, “Inhibitors of peptidylarginine deiminases” (Gilead Sciences, Inc., priority 2020, dated 2024):
# Biological target: T1, human PAD4 (Homo sapiens, UniProt Q9UM07)
# T1 construct: human PAD4 (NM_012387), A2-P663, was PCR amplified; His-SUMO (N, cleaved yes); made in house; host or cells: E. coli BL21(DE3)
# Assay: In vitro PAD4 BAEE biochemical assay
# Details: BAEE substrate 3 mM, 5 nM PAD4, 2 mM calcium chloride; geometric mean of multiple experiments
# Summary of the method: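 Recombinant human PAD4 (5 nM final) with 2 mM CaCl2 was preincubated with compound 30 min at 25 °C in MOPS buffer pH 7.6, then reacted with 3 mM BAEE for 2 h at 25 °C. After EDTA stop, released ammonia was detected by o-phthalaldehyde/DTT fluorescence (ex 405/em 535 nm); IC50 from four-parameter fit, geometric mean.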
# T1 sequence (Q9UM07 2-663): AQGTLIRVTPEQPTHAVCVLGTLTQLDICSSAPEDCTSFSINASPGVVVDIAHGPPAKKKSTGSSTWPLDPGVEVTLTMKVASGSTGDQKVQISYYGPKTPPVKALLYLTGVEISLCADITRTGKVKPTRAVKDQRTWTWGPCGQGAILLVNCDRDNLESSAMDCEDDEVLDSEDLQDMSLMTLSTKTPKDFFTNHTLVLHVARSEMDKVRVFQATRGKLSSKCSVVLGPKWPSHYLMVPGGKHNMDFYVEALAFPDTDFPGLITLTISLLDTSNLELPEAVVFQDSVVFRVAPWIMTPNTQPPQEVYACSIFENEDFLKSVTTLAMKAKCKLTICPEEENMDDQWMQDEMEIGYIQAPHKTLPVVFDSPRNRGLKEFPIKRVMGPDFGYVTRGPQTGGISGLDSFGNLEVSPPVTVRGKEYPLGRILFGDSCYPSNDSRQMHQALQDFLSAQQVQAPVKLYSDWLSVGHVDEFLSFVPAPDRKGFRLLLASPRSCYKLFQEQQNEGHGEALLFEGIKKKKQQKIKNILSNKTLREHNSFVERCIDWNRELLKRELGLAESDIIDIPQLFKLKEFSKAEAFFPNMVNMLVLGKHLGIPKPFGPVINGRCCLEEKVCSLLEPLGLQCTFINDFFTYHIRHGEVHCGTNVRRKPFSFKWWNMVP
row,Compound,IC50
1,"COc1cc(C(=O)N2[C@H]3CC[C@@H]2[C@H](N)C3)cc2nc(-c3cc4ccc5nc4n3CCCCCCn3nccc3C(=O)N[C@@H]5C)c(C)n12 [Example 35, (2~{R})-17-[7-[(1~{R},2~{R},4~{S})-2-amino-7-azabicyclo[2.2.1]heptane-7-carbonyl]-5-methoxy-3-methyl-imidazo[1,2-a]pyridin-2-yl]-2-methyl-3,8,9,16,22-pentazatetracyclo[14.5.2.0^{5,9).0^{19,23}] tricosa-1(22),5,7,17,19(23),20-hexaen-4-one]",34 nM
2,"CCc1c(-c2cc3ccc4nc3n2CCCCCCC(C)(C)C(=O)N[C@@H]4C)nn2cc(C(=O)N3CCC[C@@H](N)C3)ccc12 [Example 237, (11~{R})-17-[6-[(3~{R})-3-aminopiperidine-1-carbonyl]-3-ethyl-pyrazolo[1,5-a]pyridin-2-yl]-8,8,11-trimethyl-1,10,19-triazatricyclo[10.5.2.0^{15,18}]nonadeca-12(19),13,15(18),16-tetraen-9-one]",62 nM
3,"C[C@H]1NC(=O)[C@@H]2C[C@H]2CCCC(F)(F)Cn2c(-c3nc4cc(C(=O)N5C[C@H](N)[C@@H]6CC[C@H]5C6)c(F)c(F)c4n3C3CC3)cc3ccc1nc32 [Example 466, (2~{R},5~{R},7~{R})-14-[5-[(1~{S),4~{R},5~{R})-4-amino-2-azabicyclo[3.2.1]octane-2-carbonyl]-1-cyclopropyl-6,7-difluoro-benzimidazol-2-yl]-11,11-difluoro-2-methyl-3,13,19-triazatetracyclo[11.5.2.0^{5,7}.0^{16,20}] icosa-1(19),14,16(20),17-tetraen-4-one]",55 nM
4,"C[C@H]1NC(=O)c2ccc(Cl)nc2CCCCCn2c(-c3nc4cc(C(=O)N5C[C@H](N)[C@@H]6CC[C@H]5C6)cc(F)c4n3[C@H]3C[C@@H]3F)cc3ccc1nc32 [Example 840, (2~{R})-17-[5-[(1~{S), 4~{R},5~{R})-4-amino-2-azabicyclo[3.2.1]octane-2-carbonyl]-7-fluoro-1-[(1~ {S},2~{S})-2-fluorocyclopropyl]benzimidazol-2-yl]-8-chloro-2-methyl-3,9,16,22-tetrazatetracyclo[14.5.2.0^ {5,10).0^{19,23}]tricosa-1(22), 5(10),6,8,17,19(23),20-heptaen-4-one]",61 nM
5,"COc1cc(C(=O)N2CC[C@@H](OC(F)F)[C@@H](N)C2)cc2nc(-c3cc4ccc5nc4n3CCCCCc3cnccc3C(=O)N[C@@H]5C)n(C)c12 [Example 492, (2~{R})-17-[5-[(3~{S}, 4~{R})-3-amino-4-(difluoromethoxy)piperidine-1-carbonyl]-7-methoxy-1-methyl-benzimidazol-2-yl]-2-methyl-3,8,16,22-tetrazatetracyclo [14.5.2.0^{5,10}.0^{19,23}] tricosa-1(22),5(10), 6,8,17,19(23),20-heptaen-4-one]",156 nM
6,"CO[C@@H]1CCN(C(=O)c2cc(F)c3c(c2)nc(-c2cc4ccc5nc4n2CCCCCc2cncc(F)c2C(=O)N[C@@H]5C)n3C2CC2)C[C@@H]1N [Example 662, (2~{R})-17-[5-[(3~{S},4~ {R})-3-amino-4-methoxy-piperidine-1-carbonyl]-1-cyclopropyl-7-fluoro-benzimidazol-2-yl]-6-fluoro-2-methyl-3,8,16,22-tetrazatetracyclo[14.5.2.0^ {5,10}.0^{19,23}] tricosa-1(22),5,7,9,17,19(23), 20-heptaen-4-one]",32 nM
7,"COc1cc(C(=O)N2C[C@H](N)[C@@H]3CC[C@H]2C3)cc2nc(-c3cc4ccc5nc4n3CCCCC[C@]3(F)C[C@@]3(C)C(=O)N[C@@H]5C)n(C)c12 [Example 916, (2~{R},5~{S},7~{S})-14-[5-[(1~{S},4~{R},5~{R})-4-amino-2-azabicyclo[3.2.1]octane-2-carbonyl]-7-methoxy-1-methyl-benzimidazol-2-yl]-7-fluoro-2,5-dimethyl-3,13,19-triazatetracyclo[11.5.2.0^ {5,7}.0^{16,20}]icosa-1(19),14,16(20),17-tetraen-4-one]",26 nM
8,"COc1cc(C(=O)N2[C@H]3CC[C@@H]2[C@H](N)C3)cc2nc(-c3cc4ccc5nc4n3CCCCCCC(C)(C)C(=O)N[C@@H]5C)c(C)n12 [Example 121, (11~{R})-17-[7-[(1~{R},2~{R},4~{S})-2-amino-7-azabicyclo[2.2.1]heptane-7-carbonyl]-5-methoxy-3-methyl-imidazo[1,2-a]pyridin-2-yl]-8,8,11-trimethyl-1,10,19-triazatricyclo[10.5.2.0^{15,18}]nonadeca-12(19),13,15(18),16-tetraen-9-one]",46 nM

# Results, then the compound that gave them:
row,IC50,Compound
1,49 nM,"C[C@H]1NC(=O)[C@@H]2C[C@H]2CCCCCn2c(-c3nc4cc(C(=O)N[C@H]5CNCC[C@@H]5F)cnc4n3C)cc3ccc1nc32 [Example 188, ˜{N}-[(3˜{S},4˜{S})-4-fluoro-3-piperidyl]-3-methyl-2-[(2˜{R},5˜{R},7˜{R})-2-methyl-4-oxo-3,13,19-triazatetracyclo[11.5.2.0^{5,7}.0^{16,20}]icosa-1(19),14,16(20),17-tetraen-14-yl]imidazo[4,5-b]pyridine-6-carboxamide]"
2,118 nM,"COc1cc(C(=O)N2CC[C@H]3OCCN[C@H]3C2)cc2nc(-c3cc4ccc5nc4n3CC(F)(F)CCC[C@@H]3C[C@H]3C(=O)N[C@@H]5C)n(C)c12 [Example 803, (2~{R},5~{R},7~{R})-14-[5-[(4~{a}~{S},8~{a}~{R})-2,3,4,4~{a},5,7,8,8~{a}-octahydropyrido[4,3-b][1,4]oxazine-6-carbonyl]-7-methoxy-1-methyl-benzimidazol-2-yl]-11,11-difluoro-2-methyl-3,13,19-triazatetracyclo[11.5.2.0^ {5,7}.0^{16,20}]icosa-1(18),14,16,19-tetraen-4-one]"
3,32 nM,"C[C@H]1NC(=O)c2ccc(Cl)nc2CCCCCn2c(-c3nc4cc(C(=O)N[C@H]5CNCC[C@@H]5F)c(F)cc4n3C3CC3)cc3ccc1nc32 [Example 751, 2-[(2~{R})-8-chloro-2-methyl-4-oxo-3,9,16,22-tetrazatetracyclo[14.5.2.0^ {5,10}.0^{19,23}]tricosa-1(22),5(10),6,8,17,19(23),20-heptaen-17-yl]-1-cyclopropyl-6-fluoro-~{N}-[(3~{S}, 4~{S})-4-fluoro-3-piperidyl]benzimidazole-5-carboxamide]"
4,27 nM,"C[C@H]1NC(=O)[C@@H]2C[C@H]2CCCC(F)(F)Cn2c(-c3nc4cc(C(=O)N5C[C@H](N)[C@@H]6CC[C@H]5C6)cc(F)c4n3[C@@H]3C[C@@H]3F)cc3ccc1nc32 [Example 467, (2~{R},5~{R},7~{R})-14-[(1~{R})-5-[(1~{S},4~{R},5~{R})-4-amino-2-azabicyclo[3.2.1]octane-2-carbonyl]-7-fluoro-1-[(2~{S})-2-fluorocyclopropyl]benzimidazol-2-yl]-11,11-difluoro-2-methyl-3,13,19-triazatetracyclo[11.5.2.0^{5,7}.0^{16,20}] icosa-1(19),14,16(20),17-tetraen-4-one]"
5,30500 nM,"COc1cc(C(=O)NC2CNC2)cc2nc(-c3cc4ccc5nc4n3CCCCCCC(C)(C)C(=O)N[C@@H]5C)n(C)c12 [Example 177, ~{N}-(azetidin-3-yl)-7-methoxy-1-methyl-2-[(11~{R})-8,8,11-trimethyl-9-oxo-1,10,19-triazatricyclo[10.5.2.0^{15,18}]nonadeca-12(19),13,15(18),16-tetraen-17-yl]benzimidazole-5-carboxamide]"
6,82 nM,"COc1cc(C(=O)N[C@H]2CNCC[C@@H]2F)cc2nc(-c3cc4ccc5nc4n3CCCCCc3nccnc3C(=O)N[C@@H]5C)n(C)c12 [Example 241, ~{N}-[(3~{S},4~{S})-4-fluoro-3-piperidyl]-7-methoxy-1-methyl-2-[(2~{R})-2-methyl-4-oxo-3,6,9,16,22-pentazatetracyclo[14.5.2.0^{5,10}.0^{19, 23}]tricosa-1(21),5(10),6,8,17,19,22-heptaen-17-yl]benzimidazole-5-carboxamide]"
7,46 nM,"C[C@H]1NC(=O)[C@@H]2C[C@H]2CCCCCn2c(-c3nc4cc(C(=O)N[C@H]5CNCC[C@@H]5F)c(F)cc4n3CCOC3CC3)cc3ccc1nc32 [Example 600, 1-[2-(cyclopropoxy)ethyl]-6-fluoro-~{N}-[(3~{S},4~ {S})-4-fluoro-3-piperidyl]-2-[(2~{R},5~{R},7~{R})-2-methyl-4-oxo-3,13,19-triazatetracyclo[11.5.2.0^ {5,7}.0^{16,20}]icosa-1(19),14,16(20),17-tetraen-14-yl]benzimidazole-5-carboxamide]"
8,20 nM,"COc1cc(C(=O)N2C[C@H](N)[C@@H]3CC[C@H]2C3)cc2nc(-c3cc4ccc5nc4n3CCCCC[C@@H]3C[C@H]3C(=O)N[C@@H]5C)n(C)c12 [Example 444, (2~{R},5~{R},7~{R})-14-[5-[(1~{S},4~{R},5~{R})-4-amino-2-azabicyclo[3.2.1]octane-2-carbonyl]-7-methoxy-1-methyl-benzimidazol-2-yl]-2-methyl-3,13,19-triazatetracyclo[11.5.2.0^{5,7}.0^{16,20}] icosa-1(19),14,16(20),17-tetraen-4-one]"
9,45 nM,"C[C@H]1NC(=O)[C@@H]2C[C@H]2CCCCCn2c(-c3nc4cc(C(=O)N[C@H]5CNCC[C@@H]5F)c(F)cc4n3CCO)cc3ccc1nc32 [Example 601, 6-fluoro-~{N}-[(3~{S},4~ {S})-4-fluoro-3-piperidyl]-1-(2-hydroxyethyl)-2-[(2~{R},5~{R},7~{R})-2-methyl-4-oxo-3,13,19-triazatetracyclo[11.5.2.0^ {5,7}.0^{16,20}]icosa-1(19),14,16(20),17-tetraen-14-yl]benzimidazole-5-carboxamide]"
10,103 nM,"COc1cc(C(=O)N[C@H]2CNCC[C@@H]2F)cc2nc(-c3cc4ccc5nc4n3CCCCCCC(C)(C)C(=O)N[C@@H]5C)n(C)c12 [Example 75, ~{N}-[(3~{S},4~{S})-4-fluoro-3-piperidyl]-7-methoxy-1-methyl-2-[(11~{R})-8,8,11-trimethyl-9-oxo-1,10,19-triazatricyclo[10.5.2.0^{15,18}]nonadeca-12(19),13,15(18),16-tetraen-17-yl]benzimidazole-5-carboxamide]"
